This is an account of results in ChEMBL document CHEMBL1201862, “PubChem BioAssay data set” (2004).

As usually defined, the GI50 is the concentration giving 50% growth inhibition.

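96-well plates; 48 h exposure; 5 concentrations. Endpoints by linear interpolation between flanking doses. Not reached: highest tested concentration assigned. At the GI50, growth is halved.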 Activity calls are given as the source filed them. Rule as the data show it: active = GI50 up to about 1.1 µM and inactive = higher.

Test systems include SK-MEL-28; NCI-H226; HOP-92; UACC-257; HT-29; EKVX; LOX IMVI; SNB-19; COLO 205; SW-620; NCI-H23; U-251; SF-539; SK-OV-3; RXF 393.
What all share (assay): DTP human tumour cell line panel, 48 h

For `COc1cc2c3c(c1OC)C(=O)C=C3N(S(=O)(=O)c1ccc(C)cc1)CC2`, the GI50 in the assay on SK-MEL-28, with NCI-H226, with HOP-92, in the assay on UACC-257, with HT-29 and in the assay on EKVX was > 100 µM (inactive) each time. The GI50 with LOX IMVI is > 100 µM (inactive); in the assay with SNB-19 it was > 100 µM (inactive); in the assay on COLO 205, > 100 µM (inactive); in the assay with SW-620, > 100 µM (inactive); with NCI-H23, > 100 µM (inactive); with U-251 it was 84.5 µM (inactive). The figures for the GI50 in the assay on SF-539 and with SK-OV-3 were 52.7 µM (inactive) and > 100 µM (inactive), respectively.

As for `C#CCSc1nc(N)c2ncn(C3OC(COP(=O)(O)O)C(O)C3O)c2n1` (centres undefined), the GI50 with SK-MEL-28, in the assay on NCI-H226, with HOP-92, in the assay with UACC-257, in the assay on HT-29 and with EKVX was > 239 µM (inactive) in each case. Besides, the GI50 with LOX IMVI, with SNB-19, in the assay on COLO 205, with SW-620, in the assay with NCI-H23 and in the assay with SF-539 was > 239 µM (inactive) in each case. Besides, the GI50 in the assay with SK-OV-3 is > 239 µM (inactive).

On to `O=C(O)/C=C/n1c2ccccc2c(=O)c2ccccc21`, for which the GI50 in the assay with SK-MEL-28, in the assay on NCI-H226, in the assay on UACC-257, with RXF 393, in the assay with HT-29 and in the assay on EKVX was > 100 µM (inactive) each time. Also, the GI50 in the assay on LOX IMVI, in the assay with SNB-19, in the assay on COLO 205, in the assay with SW-620, with NCI-H23 and with U-251 was > 100 µM (inactive) throughout. Moreover, the GI50 with SF-539 is > 100 µM (inactive).

For `Nc1ncnc2c1ncn2C1OC(CSC(F)F)C(O)C1O` (centres undefined), the GI50 with SK-MEL-28, in the assay on NCI-H226, with HOP-92, in the assay on UACC-257, with HT-29 and with EKVX was > 100 µM (inactive) each time. Moreover, the GI50 in the assay with LOX IMVI, in the assay with COLO 205, with SW-620, with NCI-H23, with U-251 and in the assay with SF-539 was > 100 µM (inactive) in each case. Also, in the assay on SK-OV-3, the GI50 is > 100 µM (inactive).

With `COc1ccc(CNc2cnc3cc(N)ccc3n2)cc1OC`, the GI50 with SK-MEL-28, in the assay with NCI-H226, in the assay on UACC-257, in the assay on HT-29, in the assay on EKVX and in the assay on LOX IMVI was > 100 µM (inactive) each time. Moreover, the GI50 in the assay with SNB-19, with COLO 205, in the assay on SW-620 and in the assay with SF-539 was > 100 µM (inactive) throughout.

`Cc1cn(C2CC(CCCO)C(CO)O2)c(=O)[nH]c1=O` (centres undefined): the GI50 with SK-MEL-28, in the assay with UACC-257, with RXF 393, in the assay with HT-29, in the assay on EKVX and in the assay with LOX IMVI was > 100 µM (inactive) throughout. Also, the GI50 in the assay with SNB-19, in the assay with COLO 205, with SW-620, in the assay on NCI-H23, in the assay with U-251 and with SK-OV-3 was > 100 µM (inactive) in each case.

Turning to `Cc1c(C(=O)c2ccccc2C(=O)O)c2ccccc2n1C`, the GI50 with SK-MEL-28, in the assay with NCI-H226, in the assay on UACC-257, in the assay on RXF 393, with HT-29 and in the assay with EKVX was > 100 µM (inactive) each time. For the same compound, the GI50 in the assay with SW-620, in the assay on NCI-H23, in the assay on U-251, in the assay with SF-539 and with SK-OV-3 was > 100 µM (inactive) throughout.

As for `CC(C)(C)C#COC(=O)c1ccccc1`, the GI50 with NCI-H226, in the assay on UACC-257, in the assay with HT-29, with EKVX, with LOX IMVI and in the assay on SNB-19 was > 100 µM (inactive) throughout. Also, the GI50 in the assay on COLO 205, in the assay with SW-620, in the assay with NCI-H23, in the assay with U-251, in the assay with SF-539 and with SK-OV-3 was > 100 µM (inactive) throughout.

On to `CCOC(=O)[C@H]1Nc2ccc(Cl)cc2[C@H]2CCC[C@@H]12`, for which the GI50 in the assay on SK-MEL-28 is > 100 µM (inactive); in the assay with NCI-H226, > 100 µM (inactive); in the assay with UACC-257, 22 µM (inactive); in the assay on RXF 393 it was 17.9 µM (inactive); in the assay on HT-29 it was 36.7 µM (inactive); in the assay on EKVX, 92.3 µM (inactive). For the same compound, the GI50 in the assay on LOX IMVI, in the assay with SNB-19, in the assay on COLO 205, with SW-620, in the assay on NCI-H23 and with U-251 was > 100 µM (inactive) each time. The GI50 with SF-539 was > 100 µM (inactive).

As for `CC(C)N(C(=O)C12C3C4C1C1C4(C#N)C3C12C(=O)O)C(C)C` (centres undefined), the GI50 with SK-MEL-28, with NCI-H226, in the assay on HOP-92, in the assay with UACC-257, in the assay with HT-29 and in the assay on EKVX was > 100 µM (inactive) throughout. Also, the GI50 in the assay with LOX IMVI is > 93.8 µM (inactive); with SNB-19, > 100 µM (inactive); in the assay with COLO 205, > 100 µM (inactive); in the assay on SW-620, > 60.3 µM (inactive); in the assay on NCI-H23 it was > 100 µM (inactive); with U-251, > 100 µM (inactive). For the same compound, the GI50 in the assay on SF-539 and in the assay with SK-OV-3 was > 100 µM (inactive) throughout.

On to `Cc1c2cc[n+](C)cc2c(C)c2c1[nH]c1ccc(Oc3ccccc3)cc12`, for which the GI50 in the assay on SK-MEL-28 was 3.28 µM (inactive); in the assay with NCI-H226 it was 0.492 µM (active); in the assay with HOP-92 it was 1.28 µM (inactive); in the assay with UACC-257 it was 1.18 µM (inactive); with HT-29, 0.764 µM (active); with EKVX it was 3.61 µM (inactive). Further, the GI50 in the assay on LOX IMVI was 2.09 µM (inactive); with SNB-19, 0.67 µM (active); in the assay with COLO 205, 1.1 µM (active); in the assay with SW-620 it was 0.843 µM (active); in the assay on NCI-H23, 0.515 µM (active); in the assay on U-251, 0.308 µM (active). Besides, the GI50 is 1.88 µM (inactive) in the assay with SF-539 and 1.39 µM (inactive) in the assay on SK-OV-3.
